The record followed here is paper PMC9585581, “Developing Photoaffinity Probes for Dopamine Receptor D2 to Determine Targets of Parkinson’s Disease Drugs” (ACS Chemical Neuroscience, 2022).

Assay [1] addresses T1, DRD2 (Homo sapiens, UniProt P14416). The assay is described as follows: PRESTO-TANGO β-arrestin recruitment assay (HTLA cells transfected with DRD2-TANGO, luciferase readout). The note with it: for activity in β-arrestin recruitment (in words): PRESTO-TANGO; for EC50: PRESTO-TANGO β-arrestin recruitment, luciferase activity, Hill slope of 1.0; for difference in potency of probe vs parent compound: β-arrestin recruitment, probes vs their parent compounds. Also on record: TEV protease site and fused transcription factor (TANGO module); expressed in transfected cells; host or cells: HTLA cells (gift of G. Barnea), transiently transfected. It counts as cell-based. The source says: To characterize the response of the β-arrestin effector pathway to our ligands, we used the Parallel-Receptor-ome Expression and Screening via Transcriptional Output TANGO (PRESTO-TANGO) assay developed in the Roth lab.[44],[45] This assay uses luciferase activity to monitor β-arrestin recruitment by DRD2 (Figure 3a).
Figure 3 β-Arrestin recruitment analysis. (a) PRESTO-TANGO assay schematic: a ligand binds a chimeric DRD2 receptor, which then recruits β-arrestin fused with a TEV protease. The protease cuts a site between the receptor and a fused transcription factor, which then transits to the […] to initiate transcription of a luciferase gene. The luciferase activity is subsequently quantified.
HTLA cells were a gift from the laboratory of G. Barnea and were maintained in DMEM supplemented with 10% FBS, 100 U/mL penicillin, 100 μg/mL streptomycin, 2 μg/mL puromycin, 100 μg/mL hygromycin B, and 100 μg/mL G418 in a humidified atmosphere at 37 °C in 5% CO2. On day 1, cells were plated at a density of 1 × 10^5 cells/cm^2 in a black wall, clear-bottom 96-well plate (Nunc). The following day (day 2), cells were transfected with a 10× solution of 3:1 mixture of DRD2-TANGO/Optifect Transfection Reagent (Thermo) in unsupplemented DMEM. On day 3, 1× drug stimulation solutions were prepared in filter-sterilized unsupplemented DMEM. The transfection media was shaken or aspirated from the wells, and drug stimulation solutions were gently added. On day 4, drug solutions were removed from one well every 10 s (to maintain consistency of incubation time) and 50 μL per well of Bright-Glo solution (Promega) diluted 20-fold in HBSS was added. After incubation for 2 min at room temperature, luminescence was counted with an integration time of 10 s in a Spectramax i3x plate reader (Molecular Devices).

For assay [2], the target named is T1, DRD2. Briefly: Western blot analysis of DRD2-probe binding with competition by parent pharmacophore. Also on record: expressed in transfected cells. As to conditions: probe 100 nm; for competition with parent pharmacophore (Western blot): competitor (ropinirole or pramipexole) 50 μM; for photo-cross-linking / colocalization with DRD2 band (Western blot): membrane fraction enriched via Strep Tag II. The source says:
To observe the photo-cross-linking of DRD2 at the protein level, we analyzed the colocalization of DRD2 by clicking a fluorophore on the probe and performing Western blots. We further observed the competition with the parent pharmacophore of each probe and the ability of a negative control benzophenone (16) to cross-link to DRD2. Our DRD2-expressing cells or unmodified 293T cells (control group) were suspended in media, treated with the probe at a 100 nm concentration, and photo-cross-linked. The cells were then lysed, and the membrane fraction was separated and enriched for DRD2 by pulldown of the Strep Tag II fusion using magnetic beads. After “clicking” a fluorescent tag to the probe, the membrane fraction was run on an SDS-PAGE gel, transferred to a nitrocellulose membrane, and treated with antibodies against DRD2 and Strep Tag II. […] We also observed many nonspecific binding bands for the probe, which is consistent with our other studies, as well as the observations of the field when it relates to photo-cross-linking groups. […] With this confirmation, we proceeded to proteomic analysis of probe interactions.
Figure 6 Photo-cross-linking of probes 5 and 7 to DRD2 visualized with Western blot. Lanes 1–5 correspond to samples with probe 5 at 100 nm, lanes 6–10 correspond to samples treated with probe 7 at 100 nm, and lanes 11–14 correspond to samples treated with negative control probe 16. Lanes: 1, 6, and 11 are the anti-DRD2 antibody channel, lanes 2, 3, 7, 8, and 12 are fluorescence of the Alexa Fluor 555 clicked to the probes 5, 7, or 16, lanes 4, 9, and 13 are the anti-Strep Tag antibody channel, and lanes 5, 10, and 14 are the overlaid channels for the respective probes.
A stable HEK293T-derived cell line-expressing DRD2-Strep Tag II fusion was maintained in DMEM supplemented with 10% FBS, 100 U/mL penicillin, and 100 μg/mL streptomycin in a humidified atmosphere at 37 °C in 5% CO2. Cells were plated at a density of 4 × 10^4 cells/cm^2 in T300 tissue culture flasks (CellTreat) and allowed to grow to an 80% confluency. At confluency, media was removed and cells were washed once with cold HBSS, followed by incubation for 15 min in cold HBSS with 0.53 mM EDTA. Following incubation, cells were scraped off of the bottom of the flask and the cell suspension was transferred to a 15 mL conical tube and then pelleted at 500g for 5 min. The supernatant was removed, and the cell pellet was resuspended in HBSS followed by centrifugation at 500g for 5 min. […] The supernatant of the cell pellet was removed, and the cells were resuspended in probe solution and incubated at room temperature for 2 min followed by centrifugation at 500g for 5 min. The cell pellet was resuspended in either HBSS or 50 μM competitor solution in HBSS and irradiated with a 365 nm UV lamp (8 W, 2 cm distance) for 30 min at room temperature. The cells were then pelleted at 500g for 5 min, and the supernatant was removed. Membrane fractionation was performed following the MEM-PER Membrane Protein Extraction Kit (Thermo). The solubilized membrane fraction was incubated with hydrophilic streptavidin magnetic beads (NEB) for 1 h at room temperature. The flow-through was removed, and the beads were washed twice with PBS. […]

T1 sequence (P14416 whole entry, the tested form may be a part): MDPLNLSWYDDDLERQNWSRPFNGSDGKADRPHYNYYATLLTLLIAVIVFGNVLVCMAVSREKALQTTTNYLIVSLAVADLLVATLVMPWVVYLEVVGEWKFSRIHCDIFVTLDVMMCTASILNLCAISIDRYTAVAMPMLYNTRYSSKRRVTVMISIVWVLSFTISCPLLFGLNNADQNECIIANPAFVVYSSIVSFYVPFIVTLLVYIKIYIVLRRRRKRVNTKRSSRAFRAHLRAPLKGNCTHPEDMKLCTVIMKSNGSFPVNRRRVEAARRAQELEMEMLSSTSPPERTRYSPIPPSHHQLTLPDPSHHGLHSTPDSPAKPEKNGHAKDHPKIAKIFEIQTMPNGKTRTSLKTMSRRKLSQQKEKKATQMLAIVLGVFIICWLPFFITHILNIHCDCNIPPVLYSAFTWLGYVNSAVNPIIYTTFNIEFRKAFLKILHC

One may read the EC50 as the midpoint of the concentration-response curve. A higher EC50 goes with a need for much substance. For `C#CCOc1ccc(C(=O)c2ccc(CN[C@H]3CCc4nc(N)sc4C3)cc2)cc1` [Compound 7, (S)-(4-(((2-Amino-4,5,6,7-tetrahydrobenzo[d]thiazol-6-yl)amino)methyl)phenyl)(4-(prop-2-yn-1-yloxy)phenyl)methanone], at DRD2 [1], the “activity in β-arrestin recruitment (in words)” value is recorded as “low micromolar activity”, the 50% effective concentration (EC50) came out at 990 nM and the “difference in potency of probe vs parent compound” value is reported as roughly 1000 ×. In addition, on DRD2 [2], the “competition with parent pharmacophore (Western blot)” value is recorded as “greatly diminish the binding” and the “photo-cross-linking / colocalization with DRD2 band (Western blot)” value is “binding to the DRD2 receptor”.
On the same counts, the results for `C#CCOc1ccc(C(=O)c2ccc(CNCCc3cccc4c3CC(=O)N4)cc2)cc1` [Compound 5, 4-(2-((4-(4-(Prop-2-yn-1-yloxy)benzoyl)benzyl)amino)ethyl)indolin-2-one] are “low micromolar activity”, 1320 nM, roughly 1000 ×, “greatly diminish the binding” and “binding to the DRD2 receptor”.
